Numbered stars: 1 amine (or outer) side, 2 acyl side, 3 side chain; on linkers, the order of the positions; unused ones are H or OH. Bridge positions count the residues as written; N and C are the ends. Square brackets hold non-standard residues; d marks the D form. Peptide text beside a SMILES is read from it. * marks the point of attachment. X3 = COc1ccc(CC[C@H](O[*:2])c2cccc(OCC(=O)[*:1])c2)cc1OC; X2 = CN(CCC=CC(=O)OCC(C)(C)C(=O)C(=O)[*:2])[*:1]; 2Nal = N[C@@H](Cc1ccc2ccccc2c1)C(=O)O; dNMeNle = CCCC[C@@H](NC)C(=O)O; dNMeS = CN[C@H](CO)C(=O)O; dPip = O=C(O)[C@H]1CCCCN1; Sar = CNCC(=O)O; tBu = CC(C)(C)*
Key:
Format in all cases: cell-based
[1] = Cell proliferation assay, single concentration, response relative to DMSO; cell line indicated in each table; conditions: for Rel. Prolif., NCI-H929: NCI-H929 cells
Method: (§1) Cell Proliferation Assay (Prolif.) Guo et al. (2018) Nat. Chem. 11:254-63. Specific cell lines are indicated in each assay and cultured in complete growth media. Activity is scored according to the IC50 values relative to DMSO control. “Low” indicates an IC50 greater than 600 nM, “Medium” indicates an IC50 between 300 nM and 600 nM “High” indicates an IC50 less than 300 nM. “Rel.Uptake” refers to uptake activity characterization relative to a single concentration assay. “Low” indicates a response greater than 0.6 times the activity relative to DMSO, “Medium” indicates a response between 0.6 and 0.3 times the activity relative to DMSO, “High” indicates a response less than 0.3 times the activity relative to DMSO.

[2] = system: H929; assay: Cell proliferation assay (Prolif.), IC50 relative to DMSO control; conditions: H929 cells; for Prolif. H929: class relative to DMSO control; for Prolif, H929: IC50 class relative to DMSO control
Method: as §1

[3] = Nucleoside uptake assay, single concentration (Rel.Uptake), response relative to DMSO; cell line indicated in each table; conditions: 293 T cells, nucleoside uptake at single concentration
Method: Nucleoside Uptake Assay (uptake). Nuceloside uptake assays were performed with using 3H-Thymidine as described in Guo et al. (2018) Nat. Chem, 11:254-63. Specific cell lines are indicated in each assay and cultured in complete growth media. Activity is scored according to the IC50 values relative to DMSO control. “Low” indicates an IC50 greater than 600 nM, “Medium” indicates an IC50 between 300 nM and 600 nM “High” indicates an IC50 less than 300 nM. “Rel.Uptake” refers to uptake activity characterization relative to a single concentration assay. “Low” indicates a response greater than 0.6 times the activity relative to DMSO, “Medium” indicates a response between 0.6 and 0.3 times the activity relative to DMSO, “High” indicates a response less than 0.3 times the activity relative to DMSO.

Compound | Rel. Prolif., A549 ([1]; A549 cells) | Prolif. H929 [2] | Rel. Prolif., NCI-H929 [1] | Prolif, H929 [2] | Rel. Uptake, 293 T [3]
CCCC[C@@H]1C(=O)N[C@@H](Cc2ccc3ccccc3c2)C(=O)N(C)[C@H](COC(C)(C)C)C(=O)NCC(=O)N(C)CCC=CC(=O)OCC(C)(C)C(=O)C(=O)N2CCCC[C@@H]2C(=O)O[C@@H](CCc2ccc(OC)c(OC)c2)c2cccc(c2)OCC(=O)N(C)CC(=O)N1C [Compound 1] ([Sar][dNMeNle][2Nal][dNMeS](tBu)G[X2][dPip]; linker N-C via X3) | low | – | – | – | –
COc1ccc(CC[C@H]2OC(=O)[C@@H]3CCCCN3C(=O)C(=O)C(C)(C)COC(=O)C=CCCN(C)C(=O)[C@@H](Cc3ccccc3)NC(=O)CN(C)C(=O)[C@@H](Cc3ccccc3)NC(=O)[C@H](Cc3ccc(OC(=O)N4CCOCC4)cc3)N(C)C(=O)COc3cccc2c3F)cc1OC [Compound 867] | – | high | low | – | –
COc1ccc(CC[C@H]2OC(=O)[C@@H]3CCCCN3C(=O)C(=O)C(C)(C)COC(=O)C=CCCN(C)C(=O)[C@@H](Cc3ccccc3)NC(=O)CN(C)C(=O)[C@@H](Cc3ccccc3)NC(=O)[C@H](Cc3ccc(OC(=O)N4CCOCC4)cc3)N(C)C(=O)COc3cc(F)cc2c3)cc1OC [Compound 868] | – | low | low | – | –
COc1cc(CC[C@H]2OC(=O)[C@@H]3CCCCN3C(=O)C(=O)C(C)(C)COC(=O)C=CCCN(C)C(=O)[C@@H](Cc3ccccc3)NC(=O)CN(C)C(=O)[C@@H](Cc3ccccc3)NC(=O)[C@H](Cc3ccc(O)cc3)N(C)C(=O)COc3cccc2c3)cc(OC)c1OC [Compound 1566] | – | – | – | medium | medium
COc1cc(CC[C@H]2OC(=O)[C@@H]3CCCCN3C(=O)C(=O)C(C)(C)COC(=O)C=CCCN(C)C(=O)[C@@H](Cc3ccccc3)NC(=O)CN(C)C(=O)[C@@H](Cc3ccccc3)NC(=O)[C@H](Cc3ccc(O)cc3)N(C)C(=O)COc3cccc2c3)cc(O)c1OC [Compound 1567] | – | – | – | medium | medium
COc1cc(O)c(CC[C@H]2OC(=O)[C@@H]3CCCCN3C(=O)C(=O)C(C)(C)COC(=O)C=CCCN(C)C(=O)[C@@H](Cc3ccccc3)NC(=O)CN(C)C(=O)[C@@H](Cc3ccccc3)NC(=O)[C@H](Cc3ccc(O)cc3)N(C)C(=O)COc3cccc2c3)cc1OC [Compound 1568] | – | – | – | low | low
COc1cc(CC[C@H]2OC(=O)[C@@H]3CCCCN3C(=O)C(=O)C(C)(C)COC(=O)C=CCCN(C)C(=O)[C@@H](Cc3ccccc3)NC(=O)CN(C)C(=O)[C@@H](Cc3ccccc3)NC(=O)[C@H](Cc3ccc(O)cc3)N(C)C(=O)COc3cccc2c3)cc(F)c1OC [Compound 1569] | – | – | – | low | low
COc1cc(F)c(CC[C@H]2OC(=O)[C@@H]3CCCCN3C(=O)C(=O)C(C)(C)COC(=O)C=CCCN(C)C(=O)[C@@H](Cc3ccccc3)NC(=O)CN(C)C(=O)[C@@H](Cc3ccccc3)NC(=O)[C@H](Cc3ccc(O)cc3)N(C)C(=O)COc3cccc2c3)cc1OC [Compound 1570] | – | – | – | medium | medium
COc1ccc(CC[C@H]2OC(=O)[C@@H]3CCCCN3C(=O)C(=O)C(C)(C)COC(=O)C=CCCN(C)C(=O)[C@@H](Cc3ccccc3)NC(=O)CN(C)C(=O)[C@@H](Cc3ccccc3)NC(=O)[C@H](Cc3ccc(O)cc3)N(C)C(=O)COc3cccc2c3)c(F)c1OC [Compound 1571] | – | – | – | low | low
COc1ccc(CC[C@H]2OC(=O)[C@@H]3CN(C(=O)OCC4c5ccccc5-c5ccccc54)CCN3C(=O)C(=O)C(C)(C)COC(=O)C=CCCN(C)C(=O)[C@@H](Cc3ccccc3)NC(=O)CN(C)C(=O)[C@@H](Cc3ccccc3)NC(=O)[C@H](Cc3ccc(O)cc3)N(C)C(=O)COc3cccc2c3)cc1OC [Compound 1572] | – | – | – | low | low
COc1ccc(CC[C@H]2OC(=O)[C@@H]3CNCCN3C(=O)C(=O)C(C)(C)COC(=O)C=CCCN(C)C(=O)[C@@H](Cc3ccccc3)NC(=O)CN(C)C(=O)[C@@H](Cc3ccccc3)NC(=O)[C@H](Cc3ccc(O)cc3)N(C)C(=O)COc3cccc2c3)cc1OC [Compound 1573] | – | – | – | low | low
COc1ccc(CC[C@H]2OC(=O)[C@@H]3CN(C)CCN3C(=O)C(=O)C(C)(C)COC(=O)C=CCCN(C)C(=O)[C@@H](Cc3ccccc3)NC(=O)CN(C)C(=O)[C@@H](Cc3ccccc3)NC(=O)[C@H](Cc3ccc(O)cc3)N(C)C(=O)COc3cccc2c3)cc1OC [Compound 1574] | – | – | – | low | low
COc1ccc(CC[C@H]2OC(=O)[C@@H]3CCCCN3C(=O)C(=O)C(C)(C)COC(=O)C=CCCN(C)C(=O)[C@@H](Cc3ccccc3)NC(=O)CN(C)C(=O)[C@@H](Cc3ccccc3)NC(=O)[C@H](Cc3ccc(O)cc3)N(C)C(=O)COc3ccc(F)c2c3)cc1OC [Compound 1575] | – | – | – | low | low
COc1ccc(CC[C@H]2OC(=O)[C@@H]3CCCCN3C(=O)C(=O)C(C)(C)COC(=O)C=CCCN(C)C(=O)[C@@H](Cc3ccccc3)NC(=O)CN(C)C(=O)[C@@H](Cc3ccccc3)NC(=O)[C@H](Cc3ccc(O)cc3)N(C)C(=O)COc3cc(F)cc2c3)cc1OC [Compound 1576] | – | – | – | medium | medium
COc1ccc(CC[C@H]2OC(=O)[C@@H]3CCCCN3C(=O)C(=O)C(C)(C)COC(=O)C=CCCN(C)C(=O)[C@@H](Cc3ccccc3)NC(=O)CN(C)C(=O)[C@@H](Cc3ccccc3)NC(=O)[C@H](Cc3ccc(O)cc3)N(C)C(=O)COc3cccc2c3)c(OC)c1OC [Compound 1577] | – | – | – | medium | medium
COc1ccc(CC[C@H]2OC(=O)[C@@H]3CCCCN3C(=O)C(=O)C(C)(C)COC(=O)C=CCCN(C)C(=O)[C@@H](Cc3ccccc3)NC(=O)CN(C)C(=O)[C@@H](Cc3ccccc3)NC(=O)[C@H](Cc3ccc(O)cc3)N(C)C(=O)COc3cc2ccc3F)cc1OC [Compound 1578] | – | – | – | low | low
COc1ccc(CC[C@H]2OC(=O)[C@@H]3CCCCN3C(=O)C(=O)C(C)(C)COC(=O)C=CCCN(C)C(=O)[C@@H](Cc3ccccc3)NC(=O)CN(C)C(=O)[C@@H](Cc3ccccc3)NC(=O)[C@H](Cc3ccc(O)cc3)N(C)C(=O)COc3cccc2c3F)cc1OC [Compound 1579] | – | – | – | medium | medium
COc1ccc(CC[C@H]2OC(=O)[C@@H]3CCCCN3C(=O)C(=O)C(C)(C)COC(=O)C=CCCN(C)C(=O)[C@@H](Cc3ccccc3)NC(=O)CN(C)C(=O)[C@@H](Cc3ccccc3)NC(=O)[C@H](Cc3ccc(O)cc3)N(C)C(=O)COc3cncc2c3)cc1OC [Compound 1580] | – | – | – | low | low
COc1cc(OC)c(OC)cc1CC[C@H]1OC(=O)[C@@H]2CCCCN2C(=O)C(=O)C(C)(C)COC(=O)C=CCCN(C)C(=O)[C@@H](Cc2ccccc2)NC(=O)CN(C)C(=O)[C@@H](Cc2ccccc2)NC(=O)[C@H](Cc2ccc(O)cc2)N(C)C(=O)COc2cccc1c2 [Compound 1581] | – | – | – | medium | medium
COc1cc(CC[C@H]2OC(=O)[C@@H]3CCCCN3C(=O)C(=O)C(C)(C)COC(=O)C=CCCN(C)C(=O)[C@@H](Cc3ccccc3)NC(=O)CN(C)C(=O)[C@@H](Cc3ccccc3)NC(=O)[C@H](Cc3ccc(O)cc3)N(C)C(=O)COc3cccc2c3)c(OC)c(OC)c1 [Compound 1582] | – | – | – | low | low
COc1ccc(OC)c(OC)c1CC[C@H]1OC(=O)[C@@H]2CCCCN2C(=O)C(=O)C(C)(C)COC(=O)C=CCCN(C)C(=O)[C@@H](Cc2ccccc2)NC(=O)CN(C)C(=O)[C@@H](Cc2ccccc2)NC(=O)[C@H](Cc2ccc(O)cc2)N(C)C(=O)COc2cccc1c2 [Compound 1583] | – | – | – | low | low
COc1ccc(CC[C@H]2OC(=O)[C@@H]3CCCCN3C(=O)C(=O)C(C)(C)COC(=O)C=CCCN(C)C(=O)[C@@H](Cc3ccccc3)NC(=O)CN(C)C(=O)[C@@H](Cc3ccccc3)NC(=O)[C@H](Cc3ccc(O)cc3)N(C)C(=O)COc3cccc2c3)c(O)c1OC [Compound 1584] | – | – | – | low | low
COc1ccc(CC[C@H]2OC(=O)[C@@H]3CCCCN3C(=O)C(=O)C(C)(C)COC(=O)C=CCCN(C)C(=O)[C@@H]3CCCN3C(=O)[C@H](COC(C)(C)C)N(C)C(=O)[C@@H](c3ccccc3)NC(=O)[C@H](C)N(C)C(=O)COc3cc(F)cc2c3)cc1OC [Compound 1595] | – | – | – | – | Low (“Low” indicates a response greater than 0.6 times the activity relative to DMSO)
COc1ccc(CC[C@H]2OC(=O)[C@@H]3CCCCN3C(=O)C(=O)C(C)(C)COC(=O)C=CCCN(C)C(=O)[C@@H]3CCCN3C(=O)[C@H](COC(C)(C)C)N(C)C(=O)[C@H](c3ccccc3)NC(=O)[C@H](C)N(C)C(=O)COc3cc(F)cc2c3)cc1OC [Compound 1596] | – | – | – | – | Low (“Low” indicates a response greater than 0.6 times the activity relative to DMSO)

— US20210094933A1, “RAPAFUCIN DERIVATIVE COMPOUNDS AND METHODS OF USE THEREOF” (The Johns Hopkins University, priority 2019, published 2021)
